The record followed here is publication PMC9016025, “Translational imaging of the fibroblast activation protein (FAP) using the new ligand [^68Ga]Ga-OncoFAP-DOTAGA” (European Journal of Nuclear Medicine and Molecular Imaging, 2021).

What all share (assay type): biochemical
The target in assay [1] is T1, dipeptidyl peptidase 8 (DPP8) (Homo sapiens, UniProt Q6V1X1).
T1 construct: purchased BPS Bioscience 80080
The experiment in a line: In vitro fluorescence enzymatic inhibition assay, DPP8. The settings on record: for IC50: recombinant DPP8, fluorogenic substrate. On the procedure: (§1) Enzymatic inhibition activity and selectivity of OncoFAP derivatives was assessed by employing commercially available in vitro fluorescence assays for FAP, dipeptidyl peptidase 8 (DDP8), and prolyl oligo peptidase (POP) (BPS Bioscience, San Diego, CA, US). The fluorogenic substrate (Fluorogenic DPP substrate 1, Ala-Pro-AMC dipeptide, AMC: 7-amino-4-methylcumaryl) was incubated together with recombinant FAP, DDP, or POP/PREP in the presence or absence of test compounds. The enzymatic activity was correlated with the amount of cleaved fluorescent product measured by fluorescence spectroscopy. IC50 of each test compound was determined from the curves obtained by plotting fluorescence intensities at different concentrations of the inhibitor.
(§2) The synthetic fluorometric DPP substrate 1 (BPS Bioscience, San Diego, CA, USA) Catalog no. […] Reaction rates were measured from the initial 30 min of the reaction profile where product release was linear with time and plotted as a function of inhibitor dose.

Assay [2] concerns the target T2, prolyl oligo peptidase (POP) (Homo sapiens, UniProt P48147).
T2 construct: purchased BPS Bioscience 80105
T2 sequence (P48147 1-710): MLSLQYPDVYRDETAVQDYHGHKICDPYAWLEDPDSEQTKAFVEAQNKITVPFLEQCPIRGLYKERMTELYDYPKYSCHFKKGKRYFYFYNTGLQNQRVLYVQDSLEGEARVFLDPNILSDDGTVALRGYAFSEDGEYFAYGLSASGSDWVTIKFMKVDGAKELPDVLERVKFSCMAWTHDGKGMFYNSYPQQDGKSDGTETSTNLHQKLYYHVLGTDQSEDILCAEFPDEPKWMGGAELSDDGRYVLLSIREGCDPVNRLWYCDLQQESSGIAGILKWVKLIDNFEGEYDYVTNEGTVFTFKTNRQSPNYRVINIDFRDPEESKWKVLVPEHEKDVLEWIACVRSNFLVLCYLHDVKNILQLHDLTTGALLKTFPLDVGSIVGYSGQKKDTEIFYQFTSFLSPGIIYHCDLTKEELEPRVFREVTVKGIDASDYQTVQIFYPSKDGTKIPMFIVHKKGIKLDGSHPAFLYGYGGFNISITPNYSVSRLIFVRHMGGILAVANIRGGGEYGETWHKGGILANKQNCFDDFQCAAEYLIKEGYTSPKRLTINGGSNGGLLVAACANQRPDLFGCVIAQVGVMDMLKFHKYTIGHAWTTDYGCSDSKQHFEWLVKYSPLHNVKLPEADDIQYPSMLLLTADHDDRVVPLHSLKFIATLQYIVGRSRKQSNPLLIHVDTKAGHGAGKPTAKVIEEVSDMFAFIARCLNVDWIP
The experiment in a line: In vitro fluorescence enzymatic inhibition assay, POP. The settings on record: for selectivity for FAP compared to POP: from IC50 values; for IC50: recombinant POP/PREP. On the procedure:
as §1, §2

Assay [3] addresses T3, human FAP (Homo sapiens, UniProt Q12884).
T3 construct: purchased BPS Bioscience 80100
T3 sequence (Q12884 1-760): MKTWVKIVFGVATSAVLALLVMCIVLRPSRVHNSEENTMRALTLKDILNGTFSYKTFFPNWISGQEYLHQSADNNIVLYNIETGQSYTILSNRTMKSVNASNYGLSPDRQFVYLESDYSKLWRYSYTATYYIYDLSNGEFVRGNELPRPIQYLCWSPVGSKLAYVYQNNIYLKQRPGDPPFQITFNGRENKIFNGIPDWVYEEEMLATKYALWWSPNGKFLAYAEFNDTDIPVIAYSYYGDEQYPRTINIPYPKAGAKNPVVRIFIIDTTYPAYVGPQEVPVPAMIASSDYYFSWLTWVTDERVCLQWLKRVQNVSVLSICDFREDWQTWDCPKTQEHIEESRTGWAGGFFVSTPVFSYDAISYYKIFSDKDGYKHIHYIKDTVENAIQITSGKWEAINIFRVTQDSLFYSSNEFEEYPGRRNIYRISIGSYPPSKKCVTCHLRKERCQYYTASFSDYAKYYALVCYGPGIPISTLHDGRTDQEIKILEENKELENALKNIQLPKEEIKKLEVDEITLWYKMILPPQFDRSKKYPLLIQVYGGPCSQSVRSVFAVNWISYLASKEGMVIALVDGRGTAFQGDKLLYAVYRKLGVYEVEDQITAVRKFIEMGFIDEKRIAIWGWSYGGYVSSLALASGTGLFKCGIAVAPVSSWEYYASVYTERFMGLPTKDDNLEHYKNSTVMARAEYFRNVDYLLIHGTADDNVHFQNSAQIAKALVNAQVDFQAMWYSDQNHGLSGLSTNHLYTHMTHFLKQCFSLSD
Description: In vitro fluorescence enzymatic inhibition assay, FAP. Particulars: for IC50: recombinant FAP, fluorogenic DPP substrate 1, n = 3. On the procedure: as §1, §2

T1 sequence (Q6V1X1 whole entry): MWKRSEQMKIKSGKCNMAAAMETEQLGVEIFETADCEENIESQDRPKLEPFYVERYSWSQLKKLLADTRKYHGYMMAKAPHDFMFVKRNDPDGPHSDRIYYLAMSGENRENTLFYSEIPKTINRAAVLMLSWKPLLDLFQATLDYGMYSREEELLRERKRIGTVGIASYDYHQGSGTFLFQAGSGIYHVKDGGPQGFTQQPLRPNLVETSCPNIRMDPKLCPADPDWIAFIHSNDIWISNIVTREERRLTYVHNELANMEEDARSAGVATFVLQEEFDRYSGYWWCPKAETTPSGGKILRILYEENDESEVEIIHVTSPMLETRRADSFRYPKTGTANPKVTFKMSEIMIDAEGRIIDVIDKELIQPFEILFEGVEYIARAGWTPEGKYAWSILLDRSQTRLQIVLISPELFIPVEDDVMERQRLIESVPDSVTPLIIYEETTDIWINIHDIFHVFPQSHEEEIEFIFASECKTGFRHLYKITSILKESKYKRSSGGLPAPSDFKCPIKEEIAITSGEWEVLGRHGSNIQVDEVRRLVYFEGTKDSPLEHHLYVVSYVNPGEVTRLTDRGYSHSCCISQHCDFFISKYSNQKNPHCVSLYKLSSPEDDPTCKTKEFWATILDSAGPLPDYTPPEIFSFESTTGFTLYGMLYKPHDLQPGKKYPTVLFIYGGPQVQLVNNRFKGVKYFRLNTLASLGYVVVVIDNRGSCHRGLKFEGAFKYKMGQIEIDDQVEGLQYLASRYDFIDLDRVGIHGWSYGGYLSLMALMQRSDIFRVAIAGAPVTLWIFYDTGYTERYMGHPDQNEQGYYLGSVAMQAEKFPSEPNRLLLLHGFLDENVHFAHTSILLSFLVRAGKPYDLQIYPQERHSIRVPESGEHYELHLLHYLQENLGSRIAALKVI

Take [^natGa]Ga-FAPI-46 [^natGa-FAPI-46]: in assay [1] (from IC50 values), the “selectivity for FAP compared to DPP8” value is more than 1000 fold. Besides, the IC50 was 10.2 ± 3 µM in assay [1], more than 10 µM in assay [2] and 0.00837 ± 0.00071 µM in assay [3]. Further, in assay [2], the “selectivity for FAP compared to POP” value is recorded as more than 1000 fold.

For “[^natGa]Ga-OncoFAP-DOTAGA [^natGa-OncoFAP]”, the IC50 is 6.87 ± 0.111 µM in assay [1], 0.0492 ± 0.0063 µM in assay [2] (fluorogenic substrate) and 0.00051 ± 0.00011 µM in assay [3]. In assay [2], the “selectivity for FAP compared to POP” value was determined as 96 fold. Besides, the “superior FAP binding potency compared to ^natGa-FAPI-46” value in assay [3] (from IC50 values) is listed as “ca. 16 fold”.

One may read the IC50 as the concentration at which inhibition is half-maximal.
